Values after ≈ are worked out from the molar mass of the structure shown.
Legend:
Assay in all cases: ≥ marks a high value that may be exact or a test limit, other limits are often not marked, values filed in µg/mL are converted to µM
[1] = tested on: Pseudomonas aeruginosa
[2] = tested on: Staphylococcus aureus
[3] = tested on: Escherichia coli B
[4] = tested on: Bacillus subtilis
[5] = tested on: Candida albicans F7-39/IDE99
[6] = tested on: Candida albicans NCTC 3179
[7] = tested on: Staphylococcus aureus ATCC 25923
[8] = tested on: Streptococcus mutans NCTC 10449
[9] = tested on: Lactobacillus acidophilus NCTC 1723
[10] = tested on: Escherichia coli ATCC 25922
[11] = tested on: Pseudomonas aeruginosa ATCC 27853
[12] = tested on: Enterococcus faecalis NCTC 12697
[13] = tested on: Klebsiella pneumoniae ATCC 700603
[14] = tested on: Staphylococcus aureus ATCC 29213
[15] = tested on: Stenotrophomonas maltophilia
[16] = tested on: Staphylococcus epidermidis RP62A
[17] = tested on: Escherichia coli ATCC 25726
[18] = tested on: Candida albicans ATCC 90028
[19] = tested on: Proteus mirabilis ATCC 25933
[20] = tested on: Staphylococcus epidermidis RP62A/1
[21] = tested on: Acinetobacter baumannii
[22] = tested on: Bordetella pertussis

Question: How did the MIC [1] turn out when `CC(C)C[C@@H]1NC(=O)[C@H](CCCCN)NC(=O)[C@H](CC(C)C)NC(=O)[C@@H]2CCCN2C(=O)CNC(=O)[C@H](CCCCN)NC(=O)[C@@H](NC(=O)[C@H](CCCCN)NC(=O)CNC(=O)[C@H](CCCCN)NC(=O)[C@H](CCCCN)NC(=O)[C@H](CCCCN)NC(=O)[C@H](C)N)CSSC[C@@H](C(N)=O)NC(=O)[C@H](CCCCN)NC(=O)[C@H](C)NC(=O)[C@H](C(C)C)NC1=O` [AKKKGKCKGPLKLVAKC] was run?
Answer: > 100 µM

Question: What about the MIC [2] of the same compound?
Answer: > 100 µM

Question: What about the MIC [3] of the same compound?
Answer: ≥ 100 µM

Question: And the MIC [4]?
Answer: ≥ 65 µM

Question: What about the MIC [5] of the same compound?
Answer: ≥ 100 µM

Question: For `CSCC[C@H](NC(=O)[C@H](CC(C)C)NC(=O)CNC(=O)[C@@H](NC(=O)[C@H](Cc1ccccc1)NC(=O)[C@H](CO)NC(=O)[C@H](CC(=O)O)NC(=O)[C@@H](NC(=O)[C@H](CCCCN)NC(=O)[C@@H](N)Cc1cnc[nH]1)[C@@H](C)O)C(C)C)C(N)=O` [HKTDSFVGLM], which MIC [6] is on record?
Answer: ≥ 441 µM

Question: And the MIC [7]?
Answer: > 441 µM

Question: What about the MIC [8] of the same compound?
Answer: ≥ 441 µM

Question: And the MIC [9]?
Answer: ≥ 441 µM

Question: And the MIC [10]?
Answer: > 441 µM

Question: And the MIC [11]?
Answer: > 441 µM

Question: What about the MIC [12] of the same compound?
Answer: ≥ 441 µM

Question: What does the source list for `CC[C@H](C)[C@H](N)C(=O)N[C@@H](CCCCN)C(=O)N[C@@H](CC(C)C)C(=O)N[C@@H](CO)C(=O)N1CCC[C@H]1C(=O)N[C@@H](CCC(=O)O)C(=O)N[C@H](C(=O)N[C@@H](CCCCN)C(=O)N[C@@H](CCCCN)C(=O)N[C@@H](CC(N)=O)C(=O)N[C@@H](CC(C)C)C(=O)N[C@@H](CCCCN)C(=O)N[C@@H](CCCCN)C(=O)N[C@H](C(=O)N[C@@H](CC(C)C)C(=O)N[C@@H](CCCCN)C(=O)NCC(=O)N[C@@H](C)C(=O)N[C@H](C(=O)N[C@@H](CCCCN)C(=O)NCC(=O)N[C@@H](C)C(=O)N[C@H](C(=O)N[C@@H](C)C(=O)N[C@H](C(=O)N[C@@H](C)C(=O)N[C@@H](CCCCN)C(=O)N[C@@H](CCSC)C(=O)N[C@H](C(N)=O)C(C)C)C(C)C)[C@@H](C)CC)[C@@H](C)CC)C(C)C)[C@@H](C)O` [IKLSPETKKNLKKVLKGAIKGAIAVAKMV]?
Answer: MIC [7]: 3.1 µM (≈ 9.54 µg/mL); MIC [13]: 12.5 µM (≈ 38.5 µg/mL); MIC [14]: 3.1 µM (≈ 9.54 µg/mL); MIC [15]: 3.1 µM (≈ 9.54 µg/mL); MIC [11]: 25 µM (≈ 76.9 µg/mL); MIC [16]: 1.6 µM (≈ 4.92 µg/mL); MIC [17]: 6.25 µM (≈ 19.2 µg/mL); MIC [18]: ≥ 50 µM; MIC [19]: ≥ 100 µM; MIC [20]: 0.8 µM (≈ 2.46 µg/mL); MIC [21]: 3.1 µM (≈ 9.54 µg/mL)

Question: Which results are given for `CC[C@H](C)[C@@H]1NC(=O)[C@H](CCC(N)=O)NC(=O)[C@H](CCCCN)NC(=O)[C@H](CCSC)NC(=O)[C@H](CCCCN)NC(=O)[C@@H]2CCCN2C(=O)[C@H](C)NC(=O)[C@@H]2CSSC[C@@H](C(=O)N[C@@H](CCCCN)C(=O)N[C@@H](CCCN=C(N)N)C(=O)N[C@@H](CCCCN)C(=O)O)NC(=O)[C@@H]3CSSC[C@H](NC(=O)[C@H](CO)NC(=O)[C@@H](NC(=O)[C@H](CO)NC(=O)[C@H](CC(N)=O)NC(=O)CNC(=O)[C@@H](NC(=O)[C@H](CC(N)=O)NC(=O)[C@@H](N)CCCCN)[C@@H](C)CC)C(C)C)C(=O)N[C@@H](CC(C)C)C(=O)N[C@@H](CCCN=C(N)N)C(=O)N[C@@H](CC(N)=O)C(=O)N[C@@H](CCCCN)C(=O)NCC(=O)N[C@@H](C(C)C)C(=O)N[C@@H](CSSC[C@H](NC(=O)[C@H]([C@@H](C)O)NC(=O)CNC1=O)C(=O)NCC(=O)N[C@@H](CCSC)C(=O)N1CCC[C@H]1C(=O)N[C@@H](CCC(N)=O)C(=O)N[C@@H](C(C)C)C(=O)N[C@@H](CCCCN)C(=O)N3)C(=O)N[C@@H](CCSC)C(=O)N1CCC[C@H]1C(=O)NCC(=O)N[C@@H](CCCCN)C(=O)N2` [KNIGNSVSCLRNKGVCMPGKCAPKMKQIGTCGMPQVKCCKRK]?
Answer: MIC [7]: 17.7 µM (≈ 79.9 µg/mL); MIC [22]: 1.1 µM (≈ 4.99 µg/mL); MIC [10]: 22.1 µM (≈ 99.9 µg/mL)

Source: DBAASP
